Experimental data as given in patent publication US9765063B2, “Amido compounds as RORγt modulators and uses thereof” (New York University, priority 2011, dated 2017).
Entries after “also recorded” stand apart in the source; their conditions may differ.

What was measured:
[1] = tested on: mouse Th17 cell differentiation; experiment: Th17 assay: mouse Th17 polarization (IL-17a producing cells, FACS); type: cell-based
Procedure: (§1) Percentage of DMSO treated IL-17a producing cells was set at 100. Naive mouse CD4 T cells (CD25^−, CD62L^+, and CD44^low-int) were sorted and cultured with CD3/CD28 stimulatory antibodies in the presence of TGFβ (0.1 ng/ml) and IL6 (20 ng/ml). Compounds were added on Day 1 and cells were analyzed on Day 4. For intracellular cytokine staining, cells were incubated for 5 h with phorbol ester (50 ng/ml; Sigma), ionomycin (500 ng/ml; Sigma) and GolgiStop (BD). When needed, surfaces were stained by incubation for 15 min on ice with PECy7-conjugated CD4 (BD Biosciences). The Cytofix/Cytoperm buffer set (BD) was used for intracellular staining. Cells were fixed and made permeable for 30 min on ice and were stained for 30 min on ice in permeabilization buffer with Alexa647-conjugated anti-IL17a (eBioscience) and PE-conjugated anti-IFNg (eBioscience). An LSR II (BD Biosciences) and FlowJo software (Tree Star) were used for flow cytometry. RORg IC50 value acquired from the S2 cell reporter assay is listed for comparison.
as §1, with “With respect to the methodological details pertaining to FIG. 1, naive” for “Percentage of DMSO treated IL-17a producing cells was set at 100. Naive mouse”, “(BD).” for “(BD). When needed, surfaces were stained by incubation for 15 min on ice with PECy7-conjugated CD4 (BD Biosciences).”, “anti-IFNγ” for “anti-IFNg”, “cytometry.” for “cytometry. RORg IC50 value acquired from the S2 cell reporter assay is listed for comparison.”

[2] = tested on: RORγt; experiment: RORγt overexpression dependent IL17a production in human CD4 T cells (FIG. 3); type: cell-based; details: FIG. 3, FACS, 0.5 μM; listed as NCGC00242624
Procedure: Briefly, CD3+ CD4+ CD45RA+ naive human T cells were isolated from peripheral blood derived from healthy donors. The naive T cells were cultured in XVIVO-20 (Lonza) medium for 7 days in the presence of IL2 and stimulatory CD3 and CD28 antibodies. Cells were infected with lentivirus encoding human RORα or RORγ and compound or DMSO was added on day 2. FACS plot analysis is shown after gating on GFP expressing (virus infected) cells.

IC50 ([1]; naive mouse CD4 T cells, TGFβ and IL6, compounds added Day 1, analyzed Day 4, read-out: Th 17 IC50): 1 to 10 µM
Structure (SMILES): COc1cc(O)c(C(CC(=O)N2CC(C)CC(C)C2)c2ccc(C(=O)O)cc2)c(OC)c1 (stereo not drawn) [Compound 99, 4-(3-(3,5-Dimethylpiperidin-1-yl)-1-(2-hydroxy-4,6-dimethoxyphenyl)-3-oxopropyl)benzoic acid]
mouse Th17 cell differentiation, as measured by IL17a production ([1]; FIG. 1, FACS, at the indicated concentrations, listed as NCGC00242624): suppresses mouse Th17 cell differentiation with similar activity to NCGC00238427; also recorded: suppress mouse Th17 cell differentiation
RORγt overexpression dependent IL17a production in human CD4 T cells [2]: selectively inhibit RORγt dependent; also recorded: selectively inhibits RORγt overexpression dependent IL17a production
